The source of these data is ChEMBL document CHEMBL1141525, “Substituted 2,2-bisaryl-bicycloheptanes as novel and potent inhibitors of 5-lipoxygenase activating protein” (Bioorg Med Chem Lett, 2008).

In one data set the test system is Blood. Kind of data set: Inhibition of calcium ionophore-stimulated LTB4 production in human whole blood. It is filed as functional, tissue-based.
The target of data set [1] is T1, Arachidonate 5-lipoxygenase-activating protein (Homo sapiens, UniProt P20292).
T1 sequence (P20292 whole entry): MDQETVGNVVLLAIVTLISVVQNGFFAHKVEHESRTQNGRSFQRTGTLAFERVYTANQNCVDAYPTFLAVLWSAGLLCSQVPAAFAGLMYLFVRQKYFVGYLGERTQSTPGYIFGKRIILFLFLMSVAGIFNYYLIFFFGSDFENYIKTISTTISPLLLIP
The experiment in a line: Displacement of [125I]L-691831 from FLAP.

The nature of data set [2]: Inhibition of calcium ionophore-stimulated LTB4 production in human PMN cells. It counts as functional, cell-based.
Data set [3] concerns the target T2, Polyunsaturated fatty acid 5-lipoxygenase (Homo sapiens, UniProt P09917).
T2 sequence (P09917 whole entry): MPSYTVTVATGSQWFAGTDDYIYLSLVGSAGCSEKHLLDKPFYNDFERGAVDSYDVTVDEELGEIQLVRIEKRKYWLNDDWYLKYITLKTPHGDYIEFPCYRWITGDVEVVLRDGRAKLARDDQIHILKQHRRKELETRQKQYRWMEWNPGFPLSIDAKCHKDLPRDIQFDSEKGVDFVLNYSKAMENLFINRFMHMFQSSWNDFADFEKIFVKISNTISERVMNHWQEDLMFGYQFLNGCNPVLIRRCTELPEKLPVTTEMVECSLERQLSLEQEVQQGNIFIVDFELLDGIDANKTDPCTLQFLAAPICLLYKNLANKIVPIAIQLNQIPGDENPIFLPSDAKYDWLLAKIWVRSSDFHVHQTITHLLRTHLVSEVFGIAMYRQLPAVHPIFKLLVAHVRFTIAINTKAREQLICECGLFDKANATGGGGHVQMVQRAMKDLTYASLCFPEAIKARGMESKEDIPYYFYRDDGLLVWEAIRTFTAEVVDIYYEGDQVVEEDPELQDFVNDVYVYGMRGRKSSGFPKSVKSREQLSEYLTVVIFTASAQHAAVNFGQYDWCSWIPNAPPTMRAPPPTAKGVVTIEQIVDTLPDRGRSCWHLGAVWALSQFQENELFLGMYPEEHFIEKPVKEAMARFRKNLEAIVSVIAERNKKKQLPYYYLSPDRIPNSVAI
The experiment in a line: Inhibition of 5LOX.

The nature of data set [4]: Cmax in rat at 20 mg/kg, po after 6 hrs. It counts as ADME, organism-based. As to conditions: in vivo. Also on record: dose 20 mg/kg, route oral.
Data set [5] in a line: Oral bioavailability in rat at 20 mg/kg. The following applies: in vivo. It counts as ADME, organism-based.
Another data set deals with Canis familiaris. The experiment in a line: Inhibition of ragweed-induced urinary LTE4 production in dog at 2.5 ug/kg/min, iv. It is filed as functional. The following applies: Canis lupus familiaris, Urine.

For the molecule `CS(=O)(=O)CCOc1ccc(OCc2ccc3ccccc3n2)cc1C1(c2ccccc2)CC2CCC1C2` (centres undefined), the IC50 is 0.114 µM in the data set on Blood (Homo sapiens, Blood); 0.0055 µM in data set [1]; 0.0042 µM in data set [2] (Homo sapiens, PMN).
As to `O=C(Nc1cccnc1)Oc1ccc(OCc2ccccn2)c(C2(c3ccccc3)CC3CCC2C3)c1` (centres undefined), the IC50 with Blood (Homo sapiens, Blood) is more than 3 µM; in data set [1], 0.181 µM.
In the case of `COC(=O)c1ccc(OCc2ccc3ccccc3n2)cc1C1(c2ccccc2)CC2CCC1C2` (centres undefined), the IC50 in the data set on Blood (Homo sapiens, Blood) is 0.14 µM; in data set [1] it was 0.0056 µM; in data set [2] (Homo sapiens, PMN), 0.0026 µM.
With `c1ccc(C2(c3cc(OCc4ccc5ccccc5n4)ccc3OCc3ccccn3)CC3CCC2C3)cc1` (centres undefined), the half-maximal inhibitory concentration (IC50) with Blood (Homo sapiens, Blood) came out at 0.225 µM; in data set [1], 0.0041 µM; in data set [2] (Homo sapiens, PMN), 0.007 µM.
As to `Oc1cc(OCc2ccc3ccccc3n2)ccc1C1(c2ccccc2)CC2CCC1C2` (centres undefined), the IC50 in data set [1] is 0.98 µM; in data set [2] (Homo sapiens, PMN), more than 2.37 µM.
In the case of `COC(=O)COc1cc(OCc2ccc3ccccc3n2)ccc1C1(c2ccccc2)CC2CCC1C2` (centres undefined), the IC50 in data set [1] was found to be 0.776 µM; in data set [2] (Homo sapiens, PMN), 0.047 µM.
On the same counts, the results for `O=C(O)COc1cc(OCc2ccc3ccccc3n2)ccc1C1(c2ccccc2)CC2CCC1C2` (centres undefined) are 3.59 µM and 0.152 µM.
For `COC(=O)COc1ccc(OCc2ccc3ccccc3n2)cc1C1(c2ccccc2)CCCC1`, the IC50 amounted to 0.89 µM in the data set on Blood (Homo sapiens, Blood); 0.0093 µM in data set [1]; 0.0017 µM in data set [2] (Homo sapiens, PMN).
As to `COC(=O)COc1ccc(OCc2ccc3ccccc3n2)cc1C1(c2ccccc2)CCCCC1`, the half-inhibitory concentration (IC50) in the data set on Blood (Homo sapiens, Blood) worked out at 0.2 µM; in data set [1], 0.0037 µM; in data set [2] (Homo sapiens, PMN), 0.0018 µM.
In the case of `COC(=O)COc1ccc(OCc2ccc3ccccc3n2)c(C2(c3ccccc3)CC3CCC2C3)c1` (centres undefined), the IC50 in data set [1] is 0.094 µM; in data set [2] (Homo sapiens, PMN), 0.0059 µM.
In the case of `O=C(O)COc1ccc(OCc2ccc3ccccc3n2)cc1C1(c2ccccc2)CC2CCC1C2` (centres undefined), the IC50 in the data set with Blood (Homo sapiens, Blood) is more than 3 µM; in data set [1], 0.014 µM; in data set [2] (Homo sapiens, PMN) it was 0.016 µM.
On the same counts, the results for `O=C(O)CCCOc1ccc(OCc2ccc3ccccc3n2)cc1C1(c2ccccc2)CC2CCC1C2` (centres undefined) are 0.3 µM, 0.0035 µM and 0.008 µM.
On the same counts, the results for `COc1ccc(OCc2ccc3ccccc3n2)cc1C1(c2ccccc2)CC2CCC1C2` (centres undefined) are 1.1 µM, 0.0086 µM and 0.009 µM.
For `CCCCOc1ccc(OCc2ccc3ccccc3n2)cc1C1(c2ccccc2)CC2CCC1C2` (centres undefined) the same measures were more than 3 µM, 0.006 µM and 0.08 µM.
For `c1ccc2nc(COc3ccc(C4(c5ccc(OCc6ccc7ccccc7n6)cc5)CC5CCC4C5)cc3)ccc2c1` (centres undefined), the IC50 was 0.127 µM in data set [1] and more than 1.8 µM in data set [2] (Homo sapiens, PMN).
For `OCCOc1ccc(C2(c3ccc(OCCO)cc3)CC3CCC2C3)cc1` (centres undefined), the IC50 in data set [1] was 0.387 µM; in data set [2] (Homo sapiens, PMN) it was 0.06 µM; in data set [3], more than 8 µM.
As to `Oc1ccc(C2(c3ccc(OCc4ccc5ccccc5n4)cc3)CC3CCC2C3)cc1` (centres undefined), the IC50 was 0.145 µM in data set [1] and 0.186 µM in data set [2] (Homo sapiens, PMN).
As for `COC(=O)COc1ccc(C2(c3ccc(OCc4ccc5ccccc5n4)cc3)CC3CCC2C3)cc1` (centres undefined), the IC50 in data set [1] amounted to 0.182 µM; in data set [2] (Homo sapiens, PMN), 0.169 µM.
On to `Oc1ccc(O)c(C2(c3ccccc3)CC3CCC2C3)c1` (centres undefined), for which the half-inhibitory concentration (IC50) in data set [1] was 2.07 µM; in data set [2] (Homo sapiens, PMN), 0.418 µM.
Take `Oc1ccc(OCc2ccc3ccccc3n2)cc1C1(c2ccccc2)CC2CCC1C2` (centres undefined): the IC50 came to 0.58 µM in the data set with Blood (Homo sapiens, Blood); 0.0132 µM in data set [1]; 0.019 µM in data set [2] (Homo sapiens, PMN); 5 µM in data set [3].
Turning to `c1ccc(C2(c3cc(OCc4ccc5occc5n4)ccc3OCc3ccccn3)CC3CCC2C3)cc1` (centres undefined), the IC50 in the data set on Blood (Homo sapiens, Blood) is 0.08 µM; in data set [1], 0.0049 µM; in data set [2] (Homo sapiens, PMN), 0.0022 µM.
With `O=C(O)COc1ccc(C2(c3ccc(OCc4ccc5ccccc5n4)cc3)CC3CCC2C3)cc1` (centres undefined), the 50% inhibitory concentration (IC50) is 0.098 µM in data set [1]; 0.044 µM in data set [2] (Homo sapiens, PMN); more than 6.3 µM in data set [3].
In the case of `O=C(O)c1ccc(OCc2ccc3ccccc3n2)cc1C1(c2ccccc2)CC2CCC1C2` (centres undefined), the concentration for half-maximal inhibition (IC50) in data set [1] turned out to be 0.0124 µM; in data set [2] (Homo sapiens, PMN), 0.0095 µM.
In the case of `c1ccc(C2(c3cc(OCc4nc5ccccc5s4)ccc3OCc3ccccn3)CC3CCC2C3)cc1` (centres undefined), the IC50 in the data set on Blood (Homo sapiens, Blood) is 0.22 µM; in data set [1] it was 0.0076 µM; in data set [2] (Homo sapiens, PMN), 0.007 µM.
As for `CCOC(=O)CCCOc1ccc(OCc2ccc3ccccc3n2)cc1C1(c2ccccc2)CC2CCC1C2` (centres undefined), the 50% inhibitory concentration (IC50) amounted to 0.15 µM in the data set on Blood (Homo sapiens, Blood); 0.0037 µM in data set [1]; 0.042 µM in data set [2] (Homo sapiens, PMN).
`c1ccc(C2(c3cc(OCc4ccccn4)ccc3OCc3ccccn3)CC3CCC2C3)cc1` (centres undefined): the IC50 in the data set on Blood (Homo sapiens, Blood) stood at 0.275 µM; in data set [1], 0.0183 µM; in data set [2] (Homo sapiens, PMN) it was 0.0039 µM.
On the same counts, the results for `c1ccc(C2(c3cc(OCc4ccc5ccccc5n4)ccc3OCc3ccc4ccccc4n3)CCCC2)cc1` are 1.08 µM, 0.0045 µM and 0.0102 µM.
Take `c1ccc(C2(c3cc(OCc4ccc5ccccc5n4)ccc3OCc3ccc4ccccc4n3)CCCCC2)cc1`: the half-maximal inhibitory concentration (IC50) in the data set on Blood (Homo sapiens, Blood) came to 3 µM; in data set [1], 0.0042 µM; in data set [2] (Homo sapiens, PMN), 0.0061 µM.
On to `COC(=O)COc1ccc(OCc2ccc3ccccc3n2)cc1C1(c2ccccc2)CC2CCC1C2` (centres undefined), for which the half-inhibitory concentration (IC50) in the data set on Blood (Homo sapiens, Blood) was 0.29 µM; in data set [1] it was 0.005 µM; in data set [2] (Homo sapiens, PMN), 0.005 µM; in data set [3], more than 6 µM.
As for `O=C(O)COc1ccc(OCc2ccc3ccccc3n2)c(C2(c3ccccc3)CC3CCC2C3)c1` (centres undefined), the IC50 in data set [1] came out at 3.15 µM; in data set [2] (Homo sapiens, PMN) it was 0.282 µM.
Consider `Oc1ccc(OCc2ccc3ccccc3n2)cc1C1(c2ccccc2)CCCC1`, for which the half-maximal inhibitory concentration (IC50) in the data set with Blood (Homo sapiens, Blood) was found to be 1.92 µM; in data set [1] it was 0.022 µM; in data set [2] (Homo sapiens, PMN), 0.005 µM.
On the same counts, the results for `O=C(Nc1cccnc1)Oc1ccc(OCc2ccc3ccccc3n2)cc1C1(c2ccccc2)CCCC1` are 0.052 µM, 0.0024 µM and less than 0.0013 µM.
In the case of `c1ccc(C2(c3cc(OCc4cccnc4)ccc3OCc3ccccn3)CC3CCC2C3)cc1` (centres undefined), the IC50 in data set [1] is 0.134 µM; in data set [2] (Homo sapiens, PMN), 0.024 µM.
For `c1ccc(COc2ccc(OCc3ccc4ccccc4n3)cc2C2(c3ccccc3)CC3CCC2C3)cc1` (centres undefined), the half-inhibitory concentration (IC50) in the data set on Blood (Homo sapiens, Blood) is more than 3 µM; in data set [1], 0.0086 µM; in data set [2] (Homo sapiens, PMN), 0.217 µM.
For `CN(C)CCOc1ccc(OCc2ccc3ccccc3n2)cc1C1(c2ccccc2)CC2CCC1C2` (centres undefined) the same measures were 0.335 µM, 0.0065 µM and 0.0087 µM.
As for `O=C(Nc1cccnc1)Oc1ccc(OCc2nc3ccccc3s2)cc1C1(c2ccccc2)CC2CCC1C2` (centres undefined), the half-maximal inhibitory concentration (IC50) in the data set with Blood was 0.086 µM; in data set [1] it was 0.0025 µM; in data set [2] (pmn), 0.0018 µM.
The molecule `O=C(Nc1cccnc1)Oc1ccc(OCc2nc3ccccc3s2)cc1C1(c2ccccc2)CC2CCC1C2` (racemic) came in with a Cmax in data set [4] of 1.1 µM. For the same molecule, the figures for the 50% inhibitory concentration (IC50) (with Blood; in data set [1]; in data set [2] (pmn)) were 0.033 µM, 0.0028 µM and 0.002 µM, respectively. For the same molecule, the bioavailability in data set [5] is 19%. In the data set with Canis familiaris, this molecule gave an inhibition in vivo at 2.5 µg/kg/min of 89%.
In the case of `O=C(Nc1cccnc1)Oc1ccc(OCc2nc3ccccc3s2)cc1C1(c2ccccc2)CC2CCC1C2` (single isomer, unassigned; (-)), the IC50 amounted to 0.037 µM with Blood; 0.0024 µM in data set [1]; 0.003 µM in data set [2] (Homo sapiens, PMN).
In the case of `CC(C)(C)Sc1c(CC(C)(C)C(=O)O)n(Cc2ccc(Cl)cc2)c2ccc(OCc3ccc4ccccc4n3)cc12` [QUIFLAPON], the IC50 in the data set on Blood (Homo sapiens, Blood) was found to be 0.51 µM; in data set [2] (Homo sapiens, PMN) it was 0.0031 µM.
